Experimental data published in BindingDB's records for doi:10.1016/j.bioorg.2004.06.008 (BiomolÉCules Et Cibles Cellulaires Tumorales, 2004).

These molecules were tested against T1, Aromatase [1-48] (Homo sapiens, UniProt P11511) (assay: Biological Assay).
T1 construct: 1-48
T1 sequence (P11511 whole entry): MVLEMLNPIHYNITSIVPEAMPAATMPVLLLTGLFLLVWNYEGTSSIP
Description: The inhibitory activities of the compounds toward aromatase were determined in vitro using human placental microsomes and [1,2,6,7-3H]-androstenedione.
Work on `COc1ccc2c(c1)OC(c1ccc(O)cc1)CC2n1ccnc1` (stereo not drawn) [2,4-Trans-4'-hydroxy-4-imidazolyl-7-methoxyflavan, 3d] yielded an IC50 of 40 nM. `COc1ccc2c(c1)OC(c1ccc(C#N)cc1)CC2n1ccnc1` (stereo not drawn) [2,4-Trans-4'-cyano-4-imidazolyl-7-methoxyflavan, 3c] was tested, and the IC50 was 133 nM. Work on `COc1ccc2c(c1)OC(c1cccc(O)c1)CC2n1ccnc1` (stereo not drawn) [2,4-Trans-3'-hydroxy-4-imidazolyl-7-methoxyflavan, 3a] yielded an IC50 of 130 nM. `Oc1ccc(C2CC(n3ccnc3)c3ccc(O)cc3O2)cc1` (stereo not drawn) [2,4-Trans-4',7-dihydroxy-4-imidazolyl-7-methoxyflavan, 3e] showed an IC50 of 77 nM. For `COc1ccc2c(c1)OC(c1ccc(Cl)cc1)CC2n1ccnc1` (trans isomer) [2,4-Trans-4'-chloro-4-imidazolyl-7-methoxyflavan, 3b], the IC50 was 200 nM.
